Measurements taken from paper PMC12811658, “Design, Synthesis, and Structural Evolution of Pseudo‐Natural Product IDO1 Inhibitors and Degraders” (Angewandte Chemie (International Ed. in English), 2025).
Entries after “also recorded” stand apart in the source; their conditions may differ.

System: Kyn levels in BxPC3 cells (kynurenine generated by IDO1)
Assay: Cellular Kyn assay (automated Kyn screening assay)
Type: cell-based
Conditions: for IC50: Homo sapiens, BXPC-3, 48 h, IFN-γ, L-Trp and compounds 48 h, mean ± SD, read-out: IC50 (Kyn assay), reduction of kynurenine levels

SMILES	IC50 [nM]	other results
CC(C)(C)c1ccc(S(=O)(=O)N2C[C@H]3C[C@H]4C[C@H](C4(C)C)[C@@]3(COC(=O)Nc3cccc(N=[N+]=[N-])c3)C2)cc1 [compound 41, ((3aS,4R,6R,7aS)-2-((4-(tert-butyl)phenyl)sulfonyl)-5,5-dimethyloctahydro-3aH-4,6-methanoisoindol-3a-yl)methyl (3-azidophenyl)carbamate]	> 10000	–
Cc1ccc(NC(=O)OC[C@]23CN(Cc4ccccc4)C[C@H]2C[C@H]2C[C@@H]3C2(C)C)cc1 [compound 9, ((3aS,4R,6R,7aS)-2-benzyl-5,5-dimethyloctahydro-3aH-4,6-methanoisoindol-3a-yl) methyl p-tolylcarbamate]	–	activity in cellular Kyn assay (in words): abolished activity; also recorded: loss of activity
CCC(C)(C)c1ccc(S(=O)(=O)N2C[C@H]3C[C@H]4C[C@H](C4(C)C)[C@@]3(COC(=O)Nc3ccc(I)cc3)C2)cc1 [compound 75, ((3aS,4R,6R,7aS)-5,5-dimethyl-2-((4-(tert-pentyl)phenyl)sulfonyl)octahydro-3aH-4,6-methanoisoindol-3a-yl)methyl (4-iodophenyl)carbamate]	190 ± 70	–
CC(C)(C)c1ccc(S(=O)(=O)N2C[C@H]3C[C@H]4C[C@H](C4(C)C)[C@@]3(COC(=O)Nc3ccc(F)cc3)C2)cc1 [compound 34, ((3aS,4R,6R,7aS)-2-((4-(tert-butyl)phenyl)sulfonyl)-5,5-dimethyloctahydro-3aH-4,6-methanoisoindol-3a-yl)methyl (4-fluorophenyl)carbamate]	> 10000	–
COc1ccc(NC(=O)OC[C@]23CN(S(=O)(=O)c4ccc(C(C)(C)C)cc4)C[C@H]2C[C@H]2C[C@@H]3C2(C)C)cc1 [compound 44, ((3aS,4R,6R,7aS)-2-((4-(tert-butyl)phenyl)sulfonyl)-5,5-dimethyloctahydro-3aH-4,6-methanoisoindol-3a-yl)methyl (4-methoxyphenyl)carbamate]	1200 ± 200	–
CC(C)(C)Cc1ccc(S(=O)(=O)N2C[C@H]3C[C@H]4C[C@H](C4(C)C)[C@@]3(COC(=O)Nc3ccc(I)cc3)C2)cc1 [compound 74, ((3aS,4R,6R,7aS)-5,5-dimethyl-2-((4-neopentylphenyl)sulfonyl)octahydro-3aH-4,6-methanoisoindol-3a-yl)methyl (4-iodophenyl)carbamate]	230 ± 60	–
CC1(C)[C@H]2C[C@@H]3CN(S(=O)(=O)c4cccnc4)C[C@]3(COC(=O)Nc3ccc(I)cc3)[C@@H]1C2 [compound 61, ((3aS,4R,6R,7aS)-5,5-dimethyl-2-(pyridin-3-ylsulfonyl)octahydro-3aH-4,6-methanoisoindol-3a-yl)methyl (4-iodophenyl)carbamate]	6100 ± 900	–
Cc1cccc(S(=O)(=O)N2C[C@H]3C[C@H]4C[C@H](C4(C)C)[C@@]3(COC(=O)Nc3ccc(I)cc3)C2)c1 [compound 67, ((3aS,4R,6R,7aS)-5,5-dimethyl-2-(m-tolylsulfonyl)octahydro-3aH-4,6-methanoisoindol-3a-yl)methyl (4-iodophenyl)carbamate]	1100 ± 500	–
CC(C)(C)c1ccc(S(=O)(=O)N2C[C@H]3C[C@H]4C[C@H](C4(C)C)[C@@]3(COC(=O)Nc3ccccc3)C2)cc1 [compound 32, ((3aS,4R,6R,7aS)-2-((4-(tert-butyl)phenyl)sulfonyl)-5,5-dimethyloctahydro-3aH-4,6-methanoisoindol-3a-yl)methyl phenylcarbamate]	7000 ± 1600	–
Cc1ccc(NC(=O)OC[C@]23CN(S(=O)(=O)c4ccc(OC(F)(F)F)cc4)C[C@H]2C[C@H]2C[C@@H]3C2(C)C)cc1 [compound 58, ((3aS,4R,6R,7aS)-5,5-dimethyl-2-((4-(trifluoromethoxy)phenyl)sulfonyl)octahydro-3aH-4,6-methanoisoindol-3a-yl)methyl p-tolylcarbamate]	3000 ± 1300	–
CC(C)(C)c1ccc(S(=O)(=O)N2C[C@H]3C[C@H]4C[C@H](C4(C)C)[C@@]3(COC(=O)Nc3ccccc3Br)C2)cc1 [compound 38, ((3aS,4R,6R,7aS)-2-((4-(tert-butyl)phenyl)sulfonyl)-5,5-dimethyloctahydro-3aH-4,6-methanoisoindol-3a-yl)methyl (2-bromophenyl)carbamate]	390 ± 70	–
CC(C)(C)c1ccc(-c2ccc(S(=O)(=O)N3C[C@H]4C[C@H]5C[C@H](C5(C)C)[C@@]4(COC(=O)Nc4ccc(I)cc4)C3)cc2)cc1 [compound 76, ((3aS,4R,6R,7aS)-2-((4'-(tert-butyl)-[1,1'-biphenyl]-4-yl)sulfonyl)-5,5-dimethyloctahydro-3aH-4,6-methanoisoindol-3a-yl)methyl (4-iodophenyl)carbamate]	> 10000	–
Cc1ccc(NC(=O)NC[C@]23CN(S(=O)(=O)c4ccc(C(C)(C)C)cc4)C[C@H]2C[C@H]2C[C@@H]3C2(C)C)cc1 [compound 7, 1-(((3aR,4R,6R,7aS)-2-((4-(tert-butyl)phenyl)sulfonyl)-5,5-dimethyloctahydro-3aH-4,6-methanoisoindol-3a-yl)methyl)-3-(p-tolyl) urea]	–	activity in cellular Kyn assay (in words): did not improve activity
COc1ccc(S(=O)(=O)N2C[C@H]3C[C@H]4C[C@H](C4(C)C)[C@@]3(COC(=O)Nc3ccc(C)cc3)C2)cc1 [compound 57, ((3aS,4R,6R,7aS)-2-((4-methoxyphenyl)sulfonyl)-5,5-dimethyloctahydro-3aH-4,6-methanoisoindol-3a-yl)methyl p-tolylcarbamate]	> 10000	–
CCc1ccc(NC(=O)OC[C@]23CN(S(=O)(=O)c4ccc(C(C)(C)C)cc4)C[C@H]2C[C@H]2C[C@@H]3C2(C)C)cc1 [compound 28, ((3aS,4R,6R,7aS)-2-((4-(tert-butyl)phenyl)sulfonyl)-5,5-dimethyloctahydro-3aH-4,6-methanoisoindol-3a-yl)methyl (4-ethylphenyl)carbamate]	2900 ± 300	–
CC(C)(C)c1ccc(S(=O)(=O)N2CC3CCCC3(COC(=O)Nc3ccc(I)cc3)C2)cc1 (stereo not drawn) [compound 26, (2-((4-(tert-butyl)phenyl)sulfonyl)hexahydrocyclopenta [c]pyrrol-3a(1H)-yl) methyl (4-iodophenyl) carbamate]	–	activity in cellular Kyn assay (in words): inactive
CN(C)CC(C)(C)c1ccc(S(=O)(=O)N2C[C@H]3C[C@H]4C[C@H](C4(C)C)[C@@]3(COC(=O)Nc3ccc(I)cc3)C2)cc1 [compound 88, ((3aS,4R,6R,7aS)-2-((4-(1-(dimethylamino)-2-methylpropan-2-yl)phenyl)sulfonyl)-5,5-dimethyloctahydro-3aH-4,6-methanoisoindol-3a-yl)methyl (4-iodophenyl)carbamate]	2500 ± 100	–
CC(C)(C)c1ccc(S(=O)(=O)N2C[C@H]3C[C@H]4C[C@H](C4(C)C)[C@@]3(COC(=O)Nc3cccc(Br)c3)C2)cc1 [compound 39, ((3aS,4R,6R,7aS)-2-((4-(tert-butyl)phenyl)sulfonyl)-5,5-dimethyloctahydro-3aH-4,6-methanoisoindol-3a-yl)methyl (3-bromophenyl)carbamate]	9900 ± 1580	–
CC(C)(C)c1ccc(S(=O)(=O)N2C[C@H]3C[C@H]4C[C@H](C4(C)C)[C@@]3(COC(=O)Nc3ccc(C(F)(F)F)cc3)C2)cc1 [compound 45, ((3aS,4R,6R,7aS)-2-((4-(tert-butyl)phenyl)sulfonyl)-5,5-dimethyloctahydro-3aH-4,6-methanoisoindol-3a-yl)methyl (4-(trifluoromethyl)phenyl)carbamate]	> 10000	–
CC1(C)[C@H]2C[C@@H]3CN(S(=O)(=O)c4ccc5ccccc5c4)C[C@]3(COC(=O)Nc3ccc(I)cc3)[C@@H]1C2 [compound 64, ((3aS,4R,6R,7aS)-5,5-dimethyl-2-(naphthalen-2-ylsulfonyl)octahydro-3aH-4,6-methanoisoindol-3a-yl)methyl (4-iodophenyl)carbamate]	400 ± 100	–
CC1(C)[C@H]2C[C@@H]3CN(S(=O)(=O)c4ccccc4)C[C@]3(COC(=O)Nc3ccc(I)cc3)[C@@H]1C2 [compound 65, ((3aS,4R,6R,7aS)-5,5-dimethyl-2-(phenylsulfonyl)octahydro-3aH-4,6-methanoisoindol-3a-yl)methyl (4-iodophenyl)carbamate]	2600 ± 500	–
CC1(C)[C@H]2C[C@@H]3CN(S(=O)(=O)c4cccs4)C[C@]3(COC(=O)Nc3ccc(I)cc3)[C@@H]1C2 [compound 63, ((3aS,4R,6R,7aS)-5,5-dimethyl-2-(thiophen-2-ylsulfonyl)octahydro-3aH-4,6-methanoisoindol-3a-yl)methyl (4-iodophenyl)carbamate]	3500 ± 300	–
CC(C)(C)c1ccc(S(=O)(=O)N2C[C@@H]3C[C@@H]4C[C@@H](C4(C)C)[C@]3(COC(=O)Nc3ccc(I)cc3)C2)cc1 [compound 20, ((3aR,4S,6S,7aR)-2-((4-(tert-butyl)phenyl)sulfonyl)-5,5-dimethyloctahydro-3aH-4,6-methanoisoindol-3a-yl)methyl (4-iodophenyl)carbamate]	–	fold lower activity than 14 (iDeg-2) in Kyn assay: 16 fold
CC1(C)CCC(C)(C)c2cc(S(=O)(=O)N3C[C@H]4C[C@H]5C[C@H](C5(C)C)[C@@]4(COC(=O)Nc4ccc(I)cc4)C3)ccc21 [compound 73, ((3aS,4R,6R,7aS)-5,5-dimethyl-2-((5,5,8,8-tetramethyl-5,6,7,8-tetrahydronaphthalen-2-yl)sulfonyl)octahydro-3aH-4,6-methanoisoindol-3a-yl)methyl (4-iodophenyl)carbamate]	450 ± 390	–
Cc1ccccc1S(=O)(=O)N1C[C@H]2C[C@H]3C[C@H](C3(C)C)[C@@]2(COC(=O)Nc2ccc(I)cc2)C1 [compound 66, ((3aS,4R,6R,7aS)-5,5-dimethyl-2-(o-tolylsulfonyl)octahydro-3aH-4,6-methanoisoindol-3a-yl)methyl (4-iodophenyl)carbamate]	650 ± 270	–
CC(C)(C)c1ccc(S(=O)(=O)N2C[C@H]3C[C@H]4C[C@H](C4(C)C)[C@@]3(COC(=O)Nc3ccc(C#N)cc3)C2)cc1 [compound 47, ((3aS,4R,6R,7aS)-2-((4-(tert-butyl)phenyl)sulfonyl)-5,5-dimethyloctahydro-3aH-4,6-methanoisoindol-3a-yl)methyl (4-cyanophenyl)carbamate]	2100 ± 800	–
Cc1ccc(NC(=O)OC[C@]23CN(S(=O)(=O)c4ccc(C(F)(F)F)cc4)C[C@H]2C[C@H]2C[C@@H]3C2(C)C)cc1 [compound 56, ((3aS,4R,6R,7aS)-5,5-dimethyl-2-((4-(trifluoromethyl)phenyl)sulfonyl)octahydro-3aH-4,6-methanoisoindol-3a-yl)methyl p-tolylcarbamate]	2500 ± 1100	–
